Data on 13 compounds can be found in EP4640052A1 (BASF SE, priority 2024, dated 2025).

Several values for one entry are separate records, joined by “and”; a condition that tells them apart may be missing. Equal entries are not always repeated.

Assay [1] concerns Pyricularia oryzae (PYRIOR). Nature of the assay: microbe, parasite or virus in culture. It counts as cell-based. To be noted: for inhibition of growth at 0.004 ppm / inhibition of growth at 0.016 ppm / inhibition of growth at 0.063 ppm / inhibition of growth at 0.25 ppm / inhibition of growth at 1 ppm: Pyricularia oryzae, 168 h, read-out: Observed efficacy; for Observed efficacy: single active.

Assay [2] relates to Sclerotinia sclerotiorum (SCLESC). Nature of the assay: microbe, parasite or virus in culture. It counts as cell-based. As to conditions: for inhibition of growth at 0.063 ppm / inhibition of growth at 0.016 ppm / inhibition of growth at 0.25 ppm / inhibition of growth at 1 ppm: Sclerotinia sclerotiorum, 168 h, read-out: Observed efficacy.
Assay [3] deals with Septoria tritici (SEPTTR). Description: microbe, parasite or virus in culture. It counts as cell-based.
In assay [4] the test system is Pyrenophora teres (PYRNTE), Qol resistant (F129L). Description: microbe, parasite or virus in culture. It counts as cell-based. As to conditions: for inhibition of growth at 0.063 ppm / inhibition of growth at 0.016 ppm / inhibition of growth at 1 ppm / inhibition of growth at 0.25 ppm: Pyrenophora teres, 168 h, read-out: Observed efficacy.
The test system of assay [5] is Alternaria solani (ALTESO). Description: microbe, parasite or virus in culture. It counts as cell-based.
The next assay deals with Monilinia sp. (MONISP). Nature of the assay: microbe, parasite or virus in culture. It counts as cell-based.
Assay [6] concerns Phakopsora pachyrhizi. Nature of the assay: Green house use example 13: curative control of soybean rust on soybeans (PHAKPA F129L K4). It counts as in vivo.
The subject of assay [7] is Blumeria graminis f. sp. tritici. Nature of the assay: Green house use example 11: control of powdery mildew on wheat, sprayed 2 days after inoculation (ERYSGT K2). It counts as in vivo. As to conditions: G143A strain, single active, 16 ppm.
Assay [8] deals with Puccinia triticina (syn. P. recondita). Description: Green house use example 9: curative control of brown rust on wheat (PUCCRT K4). Format: in vivo.
Assay [9] relates to Phakopsora pachyrhizi. Nature of the assay: Green house use example 14: protective control of soybean rust on soybeans (PHAKPA F129L P2). To be noted: single compound. It counts as in vivo.
[10] abbreviates: Zymoseptoria tritici, 168 h, read-out: Observed efficacy.
Setting [11] is: Alternaria solani, 168 h, read-out: Observed efficacy.
Where [12] appears, read: Monilinia, 168 h, read-out: Observed efficacy.
The mark [13] stands for this setting: Trial 2, single compound, 4 ppm.
The mark [14] stands for this setting: Trial 1, single compound, 4 ppm.

For `N#Cc1c[nH]cc1-c1cccc2c1OC(F)(F)O2` [fludioxonil, reference compound], the inhibition of growth at 0.004 ppm (in assay [1]; in the assay with Monilinia sp. (MONISP) (setting [12])) was 8% throughout. For the same compound, the figures for the inhibition of growth at 0.016 ppm in [1] and in assay [5] (setting [11]) were 35% and 5%, respectively. Also, the inhibition of growth at 0.063 ppm in [1] was determined as 59%; in assay [2], 67%; in assay [3] (setting [10]), 5%; in [4], 51%; in assay [5] (setting [11]) it was 29%. The inhibition of growth at 0.25 ppm in assay [1] worked out at 59%; in assay [3] (setting [10]), 5%. Besides, the inhibition of growth at 1 ppm in [3] (setting [10]) is 0%.

Consider `CO/C=C(/C(=O)OC)c1cccc(C)c1CO/N=C(\COC)c1c(F)cc(F)cc1F` [I.10, Methyl (E)-3-methoxy-2-[2-[[(Z)-[2-methoxy-1-(2,4,6-trifluorophenyl)ethylidene]-amino]oxymethyl]-3-methyl-phenyl]prop-2-enoate], for which the inhibition of growth at 0.063 ppm is 43% in assay [1]; 3% in assay [2]; 0% in [3] (setting [10]); 40% in assay [4]; 0% in assay [5] (setting [11]). Besides, the figures for the inhibition of growth at 0.016 ppm in assay [2], in assay [4] and in assay [5] (setting [11]) were 0%, 15% and 0%, respectively. Besides, the inhibition of growth at 0.25 ppm turned out to be 13% in assay [2], 26% in assay [3] (setting [10]) and 0% in [5] (setting [11]). The inhibition of growth at 1 ppm in assay [3] (setting [10]) is 55%; in [4] it was 65%. Further, the Observed efficacy in the assay with Phakopsora pachyrhizi [6] (Trial 2, single compound, 1 ppm) was 13; in the assay with Phakopsora pachyrhizi [6] (setting [13]) it was 22; in the assay on Phakopsora pachyrhizi [6] (Trial 3, single compound, 4 ppm) it was 32; in [7], 7; in assay [8] (Trial 1, single compound, 1 ppm), 3; in assay [8] (setting [14]), 14.

With metarylpicoxamid, the Observed efficacy with Phakopsora pachyrhizi [6] (Trial 3, single compound, 1 ppm) came to 20; in the assay on Phakopsora pachyrhizi [6] (Trial 3, single compound, 2 ppm), 66.

Consider `CO/C=C(/C(=O)OC)c1cccc(C)c1CO/N=C(\COC)c1ccccc1` [I.3, Methyl (E)-3-methoxy-2-[2-[[(Z)-(2-methoxy-1-phenyl-ethylidene)amino]oxymethyl]-3-methyl-phenyl]prop-2-enoate], for which the inhibition of growth at 0.016 ppm in assay [1] was 33%; in assay [2], 0%; in [3] (setting [10]) it was 0%; in [4], 26%; in assay [5] (setting [11]) it was 32%. Also, the inhibition of growth at 0.063 ppm turned out to be 3% in [2]; 21% in assay [3] (setting [10]); 43% in [4]; 59% in assay [5] (setting [11]); 51% in the assay with Monilinia sp. (MONISP) (setting [12]). Besides, the inhibition of growth at 0.25 ppm in [2] was found to be 2%; in assay [3] (setting [10]), 49%; in assay [4], 51%. The inhibition of growth at 1 ppm in assay [4] worked out at 62%. In addition, the inhibition of growth at 0.004 ppm in assay [5] (setting [11]) came out at 11%.

Take mancozeb [reference compound]: the Observed efficacy in assay [1] (0.004 ppm) is 11%; in assay [1] (0.016 ppm) it was 34%; in assay [1] (0.063 ppm), 54%; in [2], 59; in assay [3] it was 18 and 19 and 13; in assay [4], 59.

Turning to `CO/C=C(/C(=O)OC)c1cccc(Cl)c1CO/N=C(\COC)c1ccc(F)cc1` [I.5, Methyl-(E)-2-[3-chloro-2-[[(Z)-[1-(4-fluorophenyl)-2-methoxy-ethylidene]amino]-oxy¬imethyl]phenyl]-3-methoxy-prop-2-enoate], the Observed efficacy in [1] (0.063 ppm) was found to be 28%; in assay [2] it was 0; in the assay on Monilinia sp. (MONISP), 56.

`OC(Cc1ccccc1Cl)(Cn1nc[nH]c1=S)C1(Cl)CC1` (stereo not drawn) [prothioconazole, reference compound]: in assay [1], the inhibition of growth at 0.25 ppm is 1% and the inhibition of growth at 1 ppm amounted to 12%. In assay [3] (setting [10]), the inhibition of growth at 0.063 ppm came out at 5% and the inhibition of growth at 0.25 ppm worked out at 67%. Besides, in [5] (setting [11]), the inhibition of growth at 0.25 ppm is 10% and the inhibition of growth at 1 ppm is 14%. The inhibition of growth at 0.004 ppm in the assay on Monilinia sp. (MONISP) (setting [12]) was determined as 19%.

As for `Cc1cccc(-n2nnn(C)c2=O)c1COc1ccn(-c2ccc(Cl)cc2)n1` [metyltetraprole, reference compound], the Observed efficacy in assay [1] (0.016 ppm) was determined as 30%; in [1] (0.063 ppm) it was 70%; in assay [5], 22; with Monilinia sp. (MONISP) it was 17.

As for `CO/C=C(/C(=O)OC)c1cccc(F)c1CO/N=C(\COC)c1c(F)cc(F)cc1F` [I.8, Methyl (E)-2-[3-fluoro-2-[[(Z)-[2-methoxy-1-(2,4,6-trifluorophenyl)ethylidene]amino]-oxymethyl]phenyl]-3-methoxy-prop-2-enoate], the inhibition of growth at 0.016 ppm in [1] was found to be 0%; in assay [4] it was 1%; in assay [5] (setting [11]), 2%. The inhibition of growth at 0.063 ppm in assay [1] stood at 0%; in assay [2] it was 0%; in [4], 14%; in assay [5] (setting [11]), 0%. The inhibition of growth at 0.25 ppm in [1] was 2%; in assay [4], 20%; in assay [5] (setting [11]), 4%; in the assay on Monilinia sp. (MONISP) (setting [12]), 42%. For the same compound, the inhibition of growth at 1 ppm turned out to be 18% in [1], 44% in [4] and 59% in assay [5] (setting [11]).

Take `CO/C=C(/C(=O)OC)c1cccc(Br)c1CO/N=C(\COC)c1ccccc1` [I.2, Methyl (E)-2-[3-bromo-2-[[(Z)-(2-methoxy-1-phenyl-ethylidene)amino]oxymethyl]-phenyl]-3-methoxy-prop-2-enoate]: in assay [1], the inhibition of growth at 0.016 ppm was 0%, the inhibition of growth at 0.063 ppm is 0% and the inhibition of growth at 1 ppm turned out to be 31%. In addition, in [2], the inhibition of growth at 0.063 ppm turned out to be 7% and the inhibition of growth at 1 ppm was 41%. Also, in assay [4], the inhibition of growth at 0.016 ppm turned out to be 7%, the inhibition of growth at 0.063 ppm came to 34%, the inhibition of growth at 0.25 ppm was 44% and the inhibition of growth at 1 ppm turned out to be 60%. Further, the inhibition of growth at 0.063 ppm in assay [5] (setting [11]) was 36%. Further, in the assay on Monilinia sp. (MONISP) (setting [12]), the inhibition of growth at 0.001 ppm came to 0%, the inhibition of growth at 0.016 ppm is 0% and the inhibition of growth at 0.063 ppm turned out to be 18%.

For the compound `CC(O)(Cn1cncn1)c1ccc(Oc2ccc(Cl)cc2)cc1C(F)(F)F` (racemic) [mefentrifluconazole, reference compound], the Observed efficacy was 0% in assay [1] (0.063 ppm); 53% in assay [1] (1 ppm); 40 and 22 in assay [4]; 27 in assay [5]; 39 in assay [8] (1 ppm); 54 in [8] (4 ppm).

`O=C(Nc1ccccc1F)c1ccc(-c2noc(C(F)(F)F)n2)cc1` [flufenoxadiazam, reference compound]: the Observed efficacy was 2% in assay [1] (0.004 ppm); 2 and 3 in [3]; 5 in assay [4]; 15 in the assay on Phakopsora pachyrhizi [6] (Trial 1, single compound, 2 ppm); 31 in the assay with Phakopsora pachyrhizi [6] (setting [14]); 17 in the assay with Phakopsora pachyrhizi [6] (Trial 2, single compound, 2 ppm). The results for the Observed efficacy in the assay on Phakopsora pachyrhizi [6] (setting [13]), in the assay with Phakopsora pachyrhizi [9] (0.5 ppm) and in the assay with Phakopsora pachyrhizi [9] (2 ppm) were 34, 0 and 63, respectively.

`CO/C=C(/C(=O)OC)c1cccc(Cl)c1CO/N=C(\COC)c1ccc(F)cc1F` [I.6, Methyl (E)-2-[3-chloro-2-[[(Z)-[1-(2,4-difluorophenyl)-2-methoxy-ethylidene]amino]-oxymethyl]phenyl]-3-methoxy-prop-2-enoate]: the inhibition of growth at 0.004 ppm in assay [1] was 0%. The inhibition of growth at 0.016 ppm in assay [1] is 0%; in [2] it was 4%; in [4] it was 2%; in assay [5] (setting [11]), 10%; in the assay on Monilinia sp. (MONISP) (setting [12]), 10%. In addition, the inhibition of growth at 0.063 ppm in [1] was 0%; in [2], 5%; in assay [4] it was 27%; in [5] (setting [11]), 18%; in the assay on Monilinia sp. (MONISP) (setting [12]), 7%. The inhibition of growth at 1 ppm in assay [1] turned out to be 24%; in [2], 47%; in [4], 54%. Besides, the values for the inhibition of growth at 0.25 ppm in [4] and in assay [5] (setting [11]) were 42% and 34%, respectively.
